Source: BindingDB's records for doi:10.1021/jm00081a009 (Glaxo Group Research, 1992)

Assays:
[1] = Opioid receptor kappa agonist potency was determined in vitro using rabbit vas deferens(LVD) preparation
[2] = Kappa-opioid receptor agonist potency in vitro using rabbit vas deferens(LVD) preparation

Row | Structure (SMILES) | IC50 [1] | IC50 [2]
1 | C=CCC1(CN2CCCC2)CCCCN1C(=O)Cc1ccc(Cl)c(Cl)c1 (stereo not drawn) | > 10000 nM | –
2 | COC(=O)[C@@H]1CCC[C@@H](CN2CCCC2)N1C(=O)Cc1ccc(Cl)c(Cl)c1 | – | 110 nM
3 | CC1(CN2CCCC2)CCCCN1C(=O)Cc1ccc(Cl)c(Cl)c1 (stereo not drawn) | > 10000 nM | –
4 | C=C1CCN(CC2CCCCN2C(=O)Cc2ccc(Cl)c(Cl)c2)C1 (stereo not drawn) | 29 nM | –
5 | O=C(Cc1ccc(Cl)c(Cl)c1)N1CCCCC1CN1CCC(O)C1 (stereo not drawn) | 0.88 nM | –
6 | C[C@H]1CCC[C@@H](CN2CCCC2)N1C(=O)Cc1ccc(Cl)c(Cl)c1 | 1.7 nM | –
7 | O=C1CCN(C(=O)Cc2ccc(Cl)c(Cl)c2)C(CN2CCCC2)C1 (stereo not drawn) | 46 nM | –
8 | O=C(Cc1ccc(Cl)c(Cl)c1)N1CCCCC1CN1CCCO1 (stereo not drawn) | – | 69 nM
9 | COC(=O)[C@@H]1CCN(C(=O)Cc2ccc(Cl)c(Cl)c2)[C@H](CN2CCCC2)C1 | 250 nM | –
10 | NC(=O)[C@H]1CC[C@@H](CN2CCCC2)N(C(=O)Cc2ccc(Cl)c(Cl)c2)C1 | – | > 10000 nM
11 | NC(=O)[C@@H]1CCN(C(=O)Cc2ccc(Cl)c(Cl)c2)[C@H](CN2CCCC2)C1 | – | 1200 nM
12 | O=C(Cc1ccc(Cl)c(Cl)c1)N1CC2(CC[C@H]1CN1CCCC1)OCCO2 | – | 160 nM
13 | COC(=O)C1=CCCN(CC2CCCCN2C(=O)Cc2ccc(Cl)c(Cl)c2)C1 (stereo not drawn) | – | 15 nM
14 | O=C(Cc1ccc(Cl)c(Cl)c1)N1CCC2(CC1CN1CCCC1)SCCS2 (stereo not drawn) | 5 nM | –
15 | O=C1CC[C@@H](CN2CCCC2)N(C(=O)Cc2ccc(Cl)c(Cl)c2)C1 | – | 390 nM
16 | COC(=O)[C@H]1CC[C@@H](CN2CCCC2)N(C(=O)Cc2ccc(Cl)c(Cl)c2)C1 | – | 300 nM
17 | O=C(Cc1ccc(Cl)c(Cl)c1)N1CCCCC1CN1CC=CCC1 (stereo not drawn) | – | 6.3 nM
18 | O=C(Cc1ccc(Cl)c(Cl)c1)N1CCC[C@@H](O)[C@H]1CN1CCCC1 | 590 nM | –
19 | NC(=O)[C@H]1CCC[C@@H](CN2CCCC2)N1C(=O)Cc1ccc(Cl)c(Cl)c1 | – | > 10000 nM
20 | O=C1CCCN(C(=O)Cc2ccc(Cl)c(Cl)c2)C1CN1CCCC1 (stereo not drawn) | – | 2000 nM
21 | O=C(Cc1ccc(Cl)c(Cl)c1)N1CC[C@H](O)C[C@H]1CN1CCCC1 | 1400 nM | –
22 | COC(=O)/C=C1\CCN(CC2CCCCN2C(=O)Cc2ccc(Cl)c(Cl)c2)C1 (stereo not drawn) | 1020 nM | –
23 | O=C(Cc1ccc(Cl)c(Cl)c1)N1CCCCC1CN1CCCCC1 (stereo not drawn) | 260 nM | –
